Measurements taken from ChEMBL document CHEMBL5230103, “Hydroxamic acid hybrids as the potential anticancer agents: An Overview” (Eur J Med Chem, 2020).

Legend:
[1] = Selectivity index, ratio of IC50 for cytotoxicity against human MCF-10A cells to IC50 for cytotoxicity against human MCF7 cells; type: toxicity, cell-based; settings: MCF-10A cells and MCF7 cells, read-out: Ratio IC50
MDA-MB-231 [2] = assay: Potency index, ratio of vorinostat IC50 to test compound IC50 for cytotoxicity against human MDA-MB-231 cells assessed as inhibition of cell growth by MTT assay; type: functional
[3] = molecular target: T1, Protein deacetylase HDAC6 (Homo sapiens, UniProt Q9UBN7); assay: Inhibition of HDAC6 (unknown origin)
T1 sequence (Q9UBN7 whole entry): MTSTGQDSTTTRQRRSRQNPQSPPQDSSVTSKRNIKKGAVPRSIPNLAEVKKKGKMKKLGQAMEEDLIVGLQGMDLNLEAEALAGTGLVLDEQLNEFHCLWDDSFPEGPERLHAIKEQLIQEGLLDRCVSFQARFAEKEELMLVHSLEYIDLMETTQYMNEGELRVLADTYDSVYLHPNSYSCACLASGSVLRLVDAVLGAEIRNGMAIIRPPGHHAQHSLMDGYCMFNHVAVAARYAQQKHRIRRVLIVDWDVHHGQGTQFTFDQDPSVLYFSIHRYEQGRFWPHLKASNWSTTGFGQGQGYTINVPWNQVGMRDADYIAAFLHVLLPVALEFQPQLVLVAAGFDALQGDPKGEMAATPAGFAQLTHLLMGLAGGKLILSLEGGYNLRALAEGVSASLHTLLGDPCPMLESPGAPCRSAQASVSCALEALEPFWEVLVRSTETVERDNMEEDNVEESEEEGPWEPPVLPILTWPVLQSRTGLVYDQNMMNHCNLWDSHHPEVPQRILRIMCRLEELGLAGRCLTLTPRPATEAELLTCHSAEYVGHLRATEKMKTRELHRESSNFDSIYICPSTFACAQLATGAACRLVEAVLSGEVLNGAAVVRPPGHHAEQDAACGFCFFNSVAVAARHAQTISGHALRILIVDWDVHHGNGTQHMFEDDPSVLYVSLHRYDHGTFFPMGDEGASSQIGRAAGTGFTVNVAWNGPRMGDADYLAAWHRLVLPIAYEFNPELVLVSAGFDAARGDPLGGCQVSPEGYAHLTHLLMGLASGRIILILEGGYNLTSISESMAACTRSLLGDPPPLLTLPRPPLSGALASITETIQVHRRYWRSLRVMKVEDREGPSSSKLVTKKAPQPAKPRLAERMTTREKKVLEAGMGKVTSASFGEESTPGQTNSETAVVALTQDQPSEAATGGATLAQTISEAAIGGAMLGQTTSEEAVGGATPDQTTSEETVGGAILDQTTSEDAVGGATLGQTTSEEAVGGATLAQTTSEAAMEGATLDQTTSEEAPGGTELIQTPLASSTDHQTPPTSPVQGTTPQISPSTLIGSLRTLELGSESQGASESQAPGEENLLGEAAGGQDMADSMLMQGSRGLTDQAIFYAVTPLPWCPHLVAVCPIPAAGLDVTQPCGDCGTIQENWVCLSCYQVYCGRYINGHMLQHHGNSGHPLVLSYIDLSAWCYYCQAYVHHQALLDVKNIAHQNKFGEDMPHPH

[4] = Selectivity index, ratio of IC50 for cytotoxicity against human MCF-10F cells to IC50 for cytotoxicity against human MCF7 cells; type: toxicity, cell-based; settings: MCF-10F cells and MCF7 cells, read-out: Ratio IC50
A549 [5] = assay: Cytotoxicity against human A549 cells assessed as inhibition of cell growth by MTT assay; type: functional, cell-based
[6] = Selectivity index, ratio of IC50 for cytotoxicity against human MCF-10F cells to IC50 for cytotoxicity against human MDA-MB-231 cells; type: toxicity, cell-based; settings: MCF-10F cells and MDA-MB-231 cells, read-out: Ratio IC50
MDA-MB-231 [7] = assay: Cytotoxicity against human MDA-MB-231 cells assessed as inhibition of cell growth by MTT assay; type: functional, cell-based
[8] = Selectivity index, ratio of IC50 for cytotoxicity against human BEAS-2B cells to IC50 for cytotoxicity against human A549 cells; type: toxicity, cell-based; settings: BEAS-2B cells and A549 cells, read-out: Ratio IC50
MCF7 [9] = assay: Cytotoxicity against human MCF7 cells assessed as inhibition of cell growth by MTT assay; type: functional, cell-based
[10] = Cytotoxicity against human BEAS-2B cells; type: toxicity, cell-based
[11] = Selectivity index, ratio of IC50 for cytotoxicity against human BEAS-2B cells to IC50 for cytotoxicity against human MDA-MB-231 cells; type: toxicity, cell-based; settings: BEAS-2B cells and MDA-MB-231 cells, read-out: Ratio IC50
[12] = Cytotoxicity against human MCF-10A cells; type: toxicity, cell-based
[13] = Selectivity index, ratio of IC50 for cytotoxicity against human MCF-10A cells to IC50 for cytotoxicity against human MDA-MB-231 cells; type: toxicity, cell-based; settings: MCF-10A cells and MDA-MB-231 cells, read-out: Ratio IC50
[14] = Cytotoxicity against human MCF-10F cells; type: toxicity, cell-based
A549 [15] = assay: Potency index, ratio of vorinostat IC50 to test compound IC50 for cytotoxicity against human A549 cells assessed as inhibition of cell growth by MTT assay; type: functional
[16] = Selectivity index, ratio of IC50 for cytotoxicity against human MCF-10F cells to IC50 for cytotoxicity against human A549 cells; type: toxicity, cell-based; settings: MCF-10F cells and A549 cells, read-out: Ratio IC50
Histone deacetylase 1 = Histone deacetylase 1 (Homo sapiens, UniProt Q13547); assay: Inhibition of HDAC1 (unknown origin)
Sequence of Histone deacetylase 1 (Q13547 whole entry): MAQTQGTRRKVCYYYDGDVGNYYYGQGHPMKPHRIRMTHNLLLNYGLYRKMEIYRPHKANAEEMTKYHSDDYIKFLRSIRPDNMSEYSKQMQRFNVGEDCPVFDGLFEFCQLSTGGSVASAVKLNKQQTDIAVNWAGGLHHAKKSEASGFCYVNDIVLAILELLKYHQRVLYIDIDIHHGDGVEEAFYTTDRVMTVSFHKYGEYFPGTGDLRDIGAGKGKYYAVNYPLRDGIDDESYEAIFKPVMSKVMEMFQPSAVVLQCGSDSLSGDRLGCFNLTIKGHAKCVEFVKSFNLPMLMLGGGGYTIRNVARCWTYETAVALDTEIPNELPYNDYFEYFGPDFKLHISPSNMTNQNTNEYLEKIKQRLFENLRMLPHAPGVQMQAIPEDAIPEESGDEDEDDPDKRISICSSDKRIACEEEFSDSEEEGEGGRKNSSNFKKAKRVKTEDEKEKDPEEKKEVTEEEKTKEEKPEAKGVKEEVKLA

[17] = Selectivity index, ratio of IC50 for cytotoxicity against human BEAS-2B cells to IC50 for cytotoxicity against human MCF7 cells; type: toxicity, cell-based; settings: BEAS-2B cells and MCF7 cells, read-out: Ratio IC50
MCF7 [18] = assay: Potency index, ratio of vorinostat IC50 to test compound IC50 for cytotoxicity against human MCF7 cells assessed as inhibition of cell growth by MTT assay; type: functional
[19] = Selectivity index, ratio of IC50 for cytotoxicity against human MCF-10A cells to IC50 for cytotoxicity against human A549 cells; type: toxicity, cell-based; settings: MCF-10A cells and A549 cells, read-out: Ratio IC50
MDA-MB-231 [20] = assay: Antitumor activity against human MDA-MB-231 cells xenografted in mouse assessed as reduction on tumor volume at 20 mg/kg, ip relative to control; type: functional; design: scale not given: the % may be the effect or the level left
Histone deacetylase 2 = Histone deacetylase 2 (Homo sapiens, UniProt Q92769); assay: Inhibition of HDAC2 (unknown origin)
Sequence of Histone deacetylase 2 (Q92769 whole entry): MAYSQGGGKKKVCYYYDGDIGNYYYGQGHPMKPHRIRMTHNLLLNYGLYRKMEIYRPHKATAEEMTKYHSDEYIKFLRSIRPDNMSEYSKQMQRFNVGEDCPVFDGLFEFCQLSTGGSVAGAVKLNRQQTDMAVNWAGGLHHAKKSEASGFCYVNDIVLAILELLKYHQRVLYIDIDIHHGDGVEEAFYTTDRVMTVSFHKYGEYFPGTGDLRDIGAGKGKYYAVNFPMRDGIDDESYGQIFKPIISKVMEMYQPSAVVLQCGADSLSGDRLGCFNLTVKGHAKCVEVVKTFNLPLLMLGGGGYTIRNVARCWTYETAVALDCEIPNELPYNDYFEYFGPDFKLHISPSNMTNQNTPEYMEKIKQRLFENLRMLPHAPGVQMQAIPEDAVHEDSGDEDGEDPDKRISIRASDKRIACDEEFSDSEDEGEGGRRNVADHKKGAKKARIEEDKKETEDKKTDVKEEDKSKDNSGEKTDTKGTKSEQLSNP

Histone deacetylase 8 = Histone deacetylase 8 (Homo sapiens, UniProt Q9BY41); assay: Inhibition of HDAC8 (unknown origin)
Sequence of Histone deacetylase 8 (Q9BY41 whole entry): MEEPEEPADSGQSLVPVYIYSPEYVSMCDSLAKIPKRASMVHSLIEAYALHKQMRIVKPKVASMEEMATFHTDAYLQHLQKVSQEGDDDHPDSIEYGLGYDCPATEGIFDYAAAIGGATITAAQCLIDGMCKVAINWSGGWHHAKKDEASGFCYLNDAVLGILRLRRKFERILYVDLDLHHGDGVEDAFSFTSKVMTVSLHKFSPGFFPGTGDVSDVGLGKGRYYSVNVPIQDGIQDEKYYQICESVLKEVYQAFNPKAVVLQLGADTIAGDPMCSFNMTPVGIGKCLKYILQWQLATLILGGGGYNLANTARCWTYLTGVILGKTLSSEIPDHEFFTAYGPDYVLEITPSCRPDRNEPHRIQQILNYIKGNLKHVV

A549 [21] = assay: Antitumor activity against human A549 cells xenografted in mouse assessed as inhibition of tumor growth at 30 mg/kg, ip relative to control; type: functional
HL-60 = assay: Antiproliferative activity against human HL-60 cells assessed as inhibition of cell growth by MTT assay; type: functional, cell-based
[22] = Cytotoxicity against human HuT 102 cells assessed as inhibition of cell growth by MTT assay; type: functional, cell-based
Histone deacetylase 3 = Histone deacetylase 3 (Homo sapiens, UniProt O15379); assay: Inhibition of HDAC3 (unknown origin)
Sequence of Histone deacetylase 3 (O15379 whole entry): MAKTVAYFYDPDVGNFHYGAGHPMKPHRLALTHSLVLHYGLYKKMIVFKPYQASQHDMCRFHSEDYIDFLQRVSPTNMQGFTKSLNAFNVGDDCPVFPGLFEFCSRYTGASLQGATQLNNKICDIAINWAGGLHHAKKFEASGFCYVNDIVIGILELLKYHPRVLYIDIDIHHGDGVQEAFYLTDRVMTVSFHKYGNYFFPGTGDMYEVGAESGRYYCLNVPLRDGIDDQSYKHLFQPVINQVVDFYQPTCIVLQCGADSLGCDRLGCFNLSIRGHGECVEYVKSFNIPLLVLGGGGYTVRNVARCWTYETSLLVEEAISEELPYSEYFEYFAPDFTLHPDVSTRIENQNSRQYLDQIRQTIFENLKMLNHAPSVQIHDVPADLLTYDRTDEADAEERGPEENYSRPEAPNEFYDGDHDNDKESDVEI

SNU-387 = assay: Cytotoxicity against human SNU-387 cells assessed as inhibition of cell growth by SRB assay; type: functional, cell-based
SNU-398 = assay: Cytotoxicity against human SNU-398 cells assessed as inhibition of cell growth by SRB assay; type: functional, cell-based
PLC-PRF-5 = assay: Cytotoxicity against human PLC-PRF-5 cells assessed as inhibition of cell growth by SRB assay; type: functional, cell-based
Ramos = assay: Cytotoxicity against human Ramos cells assessed as inhibition of cell growth by SRB assay; type: functional, cell-based
SK-HEP1 = assay: Cytotoxicity against human SK-HEP1 cells assessed as inhibition of cell growth by SRB assay; type: functional, cell-based
Histone deacetylase = assay: Inhibition of HDAC (unknown origin); type: protein assay, Homo sapiens
MCF7 [23] = assay: Cytotoxicity against human MCF7 cells assessed as inhibition of cell growth by SRB assay; type: functional, cell-based
[24] = Toxicity in BALB/c mouse assessed as maximum tolerated dose; settings: in vivo
SU-DHL-6 = assay: Cytotoxicity against human SU-DHL-6 cells assessed as inhibition of cell growth by SRB assay; type: functional, cell-based
Raji = assay: Cytotoxicity against human Raji cells assessed as inhibition of cell growth by SRB assay; type: functional, cell-based
[25] = Oral bioavailability in BALB/c mouse at 200 mg/kg; type: ADME, organism-based; settings: in vivo
HepG2 = assay: Cytotoxicity against human HepG2 cells assessed as inhibition of cell growth by SRB assay; type: functional, cell-based
K562 = assay: Cytotoxicity against human K562 cells assessed as inhibition of cell growth by SRB assay; type: functional, cell-based
MV4-11 = assay: Cytotoxicity against human MV4-11 cells assessed as inhibition of cell growth by SRB assay; type: functional, cell-based
PC-3 = assay: Cytotoxicity against human PC-3 cells assessed as inhibition of cell growth by SRB assay; type: functional, cell-based
MOLT-4 = assay: Cytotoxicity against human MOLT-4 cells assessed as inhibition of cell growth by SRB assay; type: functional, cell-based
Huh-7 = assay: Cytotoxicity against human Huh-7 cells assessed as inhibition of cell growth by SRB assay; type: functional, cell-based

O=C(CCCCCC(=O)N(Cc1ccc(Br)s1)c1ccc(OCCN2CCOCC2)cc1)NO
> 100000 nM: IC50 [10] | IC50 [12] | IC50 [14]
1.14 nM: IC50 [3] | IC50 (Histone deacetylase 1) | IC50 (Histone deacetylase 2) | IC50 (Histone deacetylase 8)
3.7: Ratio IC50 (MDA-MB-231 [2]) | Ratio IC50 (A549 [15]) | Ratio IC50 (MCF7 [18])
620 nM: IC50 (A549 [5]) | IC50 (MDA-MB-231 [7]) | IC50 (MCF7 [9])
> 16.2: selectivity ratio [1] | selectivity ratio [4] | selectivity ratio [6] | selectivity ratio [8] | selectivity ratio [11] | selectivity ratio [13] | selectivity ratio [16] | selectivity ratio [17] | selectivity ratio [19]
93%: Activity (MDA-MB-231 [20])

O=C(/C=C/c1ccc(S(=O)(=O)Nc2cc(F)cc(F)c2)cc1)NO
770 nM: IC50 (HL-60) | IC50 [22]
41.5%: inhibition in vivo at 30 mg/kg (A549 [21])
5.2 nM: IC50 [3] | IC50 (Histone deacetylase 1) | IC50 (Histone deacetylase 3)

CC(C)n1cnc2c(-c3cccc(OCCCCC(=O)NO)c3)nc(N3CCOCC3)nc21
200 mg/kg: MTD [24]
35 nM: IC50 (Histone deacetylase)
160 nM: IC50 (SNU-387) | IC50 (SNU-398) | IC50 (PLC-PRF-5) | IC50 (Ramos) | IC50 (SK-HEP1) | IC50 (MCF7 [23]) | IC50 (SU-DHL-6) | IC50 (Raji) | IC50 (HepG2) | IC50 (K562) | IC50 (MV4-11) | IC50 (PC-3) | IC50 (MOLT-4) | IC50 (Huh-7)
62%: bioavailability [25]
